Source: patent US20240247289A1, “ANTIBIOTIC FREE FERMENTATIONS, SYSTEMS AND METHODS FOR ACHIEVING ANTIBIOTIC FREE FERMENTATIONS, AND FE[…]-PRODUCTS GENERATED BY ANTIBIOTIC FREE FERMENTATIONS” (POET Research, Inc., priority 2023, published 2024)

Legend:
Saccharomyces cerevisiae [1] = details: cook process fermentation, infected
Method: (§1) Saccharomyces cerevisiae, was added to a yeast propagation set up as follows. Liquefied corn slurry acquired from a biorefinery was diluted in an appropriate ratio to obtain slurry (mash) with 20 percent dry solids (including the solids contributed by the pre-blend water). The pH of the slurry liquefact was approximately 5.0-5.5. The enzyme blend for fermentation was added to the slurry. Urea (50 percent liquor) was added to the slurry to give a final concentration of approximately 1000 ppm urea. The slurry was dispensed in 100 milliliter wide mouth bottles at 60 milliliters per bottle. The bottles were covered with a bottle cap with a 1/16″ hole drilled into the top for gas release following addition of enzyme and inoculation of the necessary organisms and placed stationary in a water bath. The fermentation temperature was held constant at 32.2 degrees Celsius for 8-16 hours. This yeast propagation was then used to inoculate fermentations including yeast at a ratio level of 2% total fermentation volume.
(§2) Liquefied corn slurry was acquired from a biorefinery with 30-35% percent dry solids (including the solids contributed by the pre-blend water). The pH of the slurry was approximately 5.0. The enzyme blend for fermentation was added to the slurry. Urea (50 percent liquor) was added to the slurry to give a final concentration of approximately 1000 ppm urea. The slurry was mixed in 100 milliliter wide mouth bottles at 60 milliliters per bottle. The bottles were covered with a bottle cap with a 1/16″ hole drilled into the top for gas release following addition of enzyme and inoculation of the necessary organisms and placed stationary in a water bath. The fermentation temperature was held constant at 33 degrees Celsius for 72 hours. Bottles were mixed well, and samples were withdrawn at various intervals during the course of fermentation and analyzed for sugars, organic acids and ethanol using high performance liquid chromatography (HPLC).

lactic acid bacteria [2] = details: cook process fermentation, infected, formic acid 100-400 ppm without hop acids (FIG. 4)
Method: as §1, §2

Saccharomyces cerevisiae [3] = details: RSH fermentation, infected samples, formic acid alone 100-400 ppm, compared to other infected samples (FIG. 1)
Method: (§3) Saccharomyces cerevisiae, yeast was added to a yeast propagation set up as follows. Ground corn was mixed with “pre-blend” (a mixture of the waters from various streams that are reused in an ethanol production facility) in an appropriate ratio to obtain slurry (mash) with 35 percent dry solids (including the solids contributed by the pre-blend water). “Preblend” was used as make up water in these studies to simulate the composition of mash, employing an exemplary embodiment provided herein, as it would be in a commercial ethanol production facility. The pH of the corn and “pre blend” slurry was approximately 4.5-4.8. An enzyme blend for raw starch hydrolysis was added to the slurry. Urea (50 percent liquor) was added to the slurry to give a final concentration of approximately 1000 ppm urea. The slurry was mixed in 100 milliliter wide mouth bottles at 60 milliliters per bottle. The bottles were covered with a bottle cap with a 1/16″ hole drilled into the top for gas release following addition of enzyme and the yeast and placed stationary in a water bath. […]
(§4) The slurry was mixed in 100 milliliter wide mouth bottles at 60 milliliters per bottle. […] Bottles were mixed well, and samples were withdrawn at various intervals during the course of fermentation and analyzed for sugars, organic acids and ethanol using high performance liquid chromatography (HPLC).

lactic acid bacteria [4] = details: RSH fermentation, infected samples, formic acid alone 100-400 ppm (FIG. 2)
Method: as §3, §4

O=CO [formic acid]
% v/v ethanol at 72 hours, vs Phibro Xact 2.5 ppm (Saccharomyces cerevisiae [1]; formic acid treated samples, at most dosages (FIG. 3)): greater than the % v/v ethanol generated by fermentation with Phibro Xact | % v/v ethanol at 72 hours (Saccharomyces cerevisiae [1]; increasing doses of formic acid alone 100-400 ppm (FIG. 3)): increase in % v/v ethanol | Ppm lactic acid at 72 hours (lactic acid bacteria [2]): decreased dose dependently | % v/v ethanol at 88 hours (Saccharomyces cerevisiae [3]): substantially reduced % v/v ethanol | ppm lactic acid at 88 hours (lactic acid bacteria [4]): reduced lactic acid ppm at 88 hours fermentation in a dose dependent method
